{
  "source": "patent US12667546B2",
  "about": "“Methods for manipulating cell state transitions in cancer” (AGENCY FOR SCIENCE, TECHNOLOGY AND RESEARCH, priority 2018, dated 2026)",
  "key": {"[1]": {"tested_on": "NAMEC8-SERPINE1prom-Luc cells", "assay": "Renilla-luciferase (constitutive CMV promoter) readout for cell numbers", "format": "cell-based, human", "conditions": "Homo sapiens, 72 h, primary screen; Renilla as readout for cell numbers; relative to DMSO; read-out: % Avr Renilla from DMSO"}, "SUM159 [2]": {"tested_on": "SUM159", "assay": "Expression of EMT and lineage markers in SUM159", "format": "cell-based, human", "procedure": "(§1) Cells were rinsed twice in ice-cold PBS. Total RNA was extracted using Trizol (Invitrogen) and column-purified with RNeasy kits (Qiagen). cDNA synthesis was performed with 500 ng of total RNA at 37° C. for 2 h using the SuperScript III First-Strand Synthesis System (Thermo Fisher Scientific), and subsequently diluted 5-fold. mRNA levels were measured with gene-specific primers listed below using the ABI Prism 7900HT Sequence Detection System 2.2 (Applied Biosystems). Results were normalized to GAPDH and analyzed using SDS 2.2 software.\nCells were harvested and scraped from culture dishes in ice-cold PBS. They were then centrifuged at 12000 rpm for 5 min at 4° C. The pellets were then snap frozen in liquid nitrogen or lysed in ice-cold RIPA lysis buffer (Thermo Scientific) and left on ice for 30 min. Subsequently, the lysates were centrifuged at 12000 rpm for 10 min at 4° C. The supernatants were then aspirated and placed in fresh tubes. Protein concentrations were determined using Coomaisse Blue. 50-80 μg total protein was mixed with NuPAGE™ LDS sample buffer and heated at 70° C. for 10 min. Samples were loaded into NuPAGE™ 4-12% Bis-Tris gels (precast polyacrylamide gel; Invitrogen™). Gel electrophoresis was done at 200V for 1.5 h and then blotted onto nitrocellulose membranes (Trans-Blot Turbo™ transfer pack; Bio-Rad). […]"}, "NAMEC8 [3]": {"tested_on": "NAMEC8", "assay": "Mammosphere assay, NAMEC8", "format": "cell-based, human", "conditions": "NAMEC8", "procedure": "For mammosphere culture, cells were seeded onto 96-well ultralow-adherence plates at 700 cells/well in Mammocult medium (Stem Cell Technologies) supplemented with 4 μg/ml heparin, 0.5 μg/ml hydrocortisone and 1% methylcellulose. Spheres (>100 μm) were counted at 7-10 days later."}, "[4]": {"tested_on": "Estrogen response element (ERE)-luciferase reporter in NAMEC8", "assay": "ERE-luciferase activity assay", "format": "cell-based, human", "procedure": "ERE luciferase construct was kindly provided by Alan Prem Kumar, CSI, Singapore. To measure the ERE-luciferase activity, cells were seeded 24 h before transfection. ERE-luciferase (1 μg) and NSV-Renilla (0.1 μg) were packaged using Lipofectamine 2000 and transfected into NAMEC8. 24 h post-transfection, cells were reseeded into 96 well plates for drug treatment. Firefly and Renilla luciferase activities were measured with the Dual-Glo Luciferase System (Promega) 24 h post-treatment."}, "NAMEC8 and BC2.2": {"tested_on": "NAMEC8 and BC2.2", "assay": "Gene expression of ER target genes", "format": "cell-based, human", "procedure": "as §1"}, "SUM159 [5]": {"tested_on": "SUM159", "assay": "Tumor growth of ex vivo pre-treated SUM159 injected subcutaneously", "format": "in vivo, NSG mice", "conditions": "short-term (14 days) ex vivo treatment before transplantation", "procedure": "All animal experiments were approved by the Agency for Science Technology and Research Singapore-Biological Resource Centre IACUC (Protocol number 140940). For pre-treated SUM159 and MCF7-Ras cells, 1×10^6 cells were suspended in 100 μl media containing 50% matrigel and injected subcutaneously into both flanks of female NSG mice. The NSG mice were checked for tumor by palpation once a week and tumors were harvested when they reached ˜15 mm in diameter. For treatment in NSG mice, 1×10^5 NAMEC8-Ras cells were suspended in 100 μl media containing 50% matrigel and injected subcutaneously into both flanks of NSG mice. The NSG mice were checked for tumor formation by palpation and when tumors were about 3 mm, mice were randomized into two groups: vehicle (5% DMSO in corn oil) and treatment (Bexarotene, 100 mg/kg/day oral dosing). Tumor size was measured every week using Vernier calipers and mice were sacrificed when tumors reached ˜15 mm or after ˜4 weeks of treatment. For patient-derived cells, 2×10^6 cells were injected subcutaneously per site in NSG mice."}, "NAMEC8 [6]": {"tested_on": "NAMEC8", "assay": "Lipidomic analysis (LC-MS/MS)", "format": "cell-based, human", "conditions": "NAMEC8 bexarotene vs DMSO", "source_text": "Lipids from cell pellets were extracted using butanol:methanol (1:1) as extraction solvent. The extraction solvent included an internal standard mixture consisting of 17:0 LPC (Lysophosphocholine), C14 LPE (Lysophosphoethanolamine), C17 Ceramide, C17 phosphocholine, C17 phosphoserine, C17:0 PG, C8-Ceramide, DMPE (1,2-dimyristoyl-glycero-3-phosphoethanolamine), DMPG (1,2-dimyristoyl-glycero-3-phospho-(1′rac-glycerol), DMPS (dimyristoyl-glycero-phosphoserine), 12:0 DG (1,2-dilauroyl-sn-glycerol), C8 GluCer (D-glucosyl-β1-1′-N-octanoyl-D-erythro-sphingosine), 24:0 SM (N-lignoceroyl-D-erythro-sphingosylphosphorylcholine), 24:1 SM (N-nervonoyl-D-erythro-sphingosylphosphorylcholine), d5-TAG 48:0. All the standards were obtained from Avanti Polar Lipids (Alabaster, AL, USA) except for d5-TAG 48:0 that was obtained from CDN isotopes. All standards were added to a final concentration of 100 ng/ml. 100 μl of the extraction solvent including the standards were added to 1×10^7 cells in a vial containing the cell pellet. The mixture was vortexed for 15 s. […]\nSamples were analysed with a liquid chromatography-tandem mass spectrometry (LC-MS/MS) system (Agilent 1290 UHPLC connected to Agilent 6490 QQQ). […] Lipids were quantified in positive multiple reaction monitoring (MRM) mode. […] Data were extracted using MassHunter Quantitative Analysis software (Agilent). […]"}, "SUM159 PACR cells": {"tested_on": "SUM159 PACR cells", "assay": "Cell viability IC50 in SUM159 PACR cells", "conditions": "SUM159 PACR"}},
  "data": [
    {"smiles": "C=C(c1ccc(C(=O)O)cc1)c1cc2c(cc1C)C(C)(C)CCC2(C)C", "note": "[Bexarotene]", "values": [
      {"measurement": "viability at 10 µM", "setting": "[1]", "result": 87.5, "unit": "%"},
      {"measurement": "expression of EMT and lineage markers / epithelial features", "setting": "SUM159 [2]", "result": "downregulation of mesenchymal signature markers (ZEB1, SERPINE1, FN1, SLUG) and the concomitant gain of epithelial marker CDH1"},
      {"measurement": "mammosphere formation after drug withdrawal", "setting": "NAMEC8 [3]", "result": "partial reestablishment of mammosphere-forming ability"},
      {"measurement": "ERE-luciferase reporter activity", "setting": "[4]", "result": "increased"},
      {"measurement": "expression of ER target genes (ABCA3, NRIP1, TFF1, CREB1)", "setting": "NAMEC8 and BC2.2", "result": "strongly elevated"},
      {"measurement": "tumorigenic potential", "setting": "SUM159 [5]", "result": "severely crippled their tumorigenic potential for up till seven weeks post-transplantation"},
      {"measurement": "lipid species content (PI, PG, PC, PE, PS)", "setting": "NAMEC8 [6]", "result": "dramatically increased"},
      {"measurement": "sensitivity to 5-FU of bexarotene-treated PACR cells", "setting": "SUM159 PACR cells", "result": "gained sensitivity to an alternative chemotherapeutic drug, 5-flurouracil (5-FU)"}
    ]}
  ]
}
